Results: ChEMBL document CHEMBL1201862, “PubChem BioAssay data set” (2004)
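Exposure lasted 48 hours, with cells grown in 96-well plates and compounds tested at five concentrations. At the GI50, growth is halved.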 The source made the active and inactive calls. No stated cut-off is given here; in the data, active = GI50 up to about 1.1 µM and inactive = higher.

Tests used:
Test in all cases: NCI-60 cell line screen, 48 h
786-0 = test system: 786-0
CAKI-1 = test system: CAKI-1
HCC 2998 = test system: HCC 2998
HCT-15 = test system: HCT-15
KM-20L2 = test system: KM-20L2
NCI-H23 = test system: NCI-H23
OVCAR-3 = test system: OVCAR-3
OVCAR-8 = test system: OVCAR-8
RPMI-8226 = test system: RPMI-8226
SW-620 = test system: SW-620
TK-10 = test system: TK-10
UACC-62 = test system: UACC-62
UO-31 = test system: UO-31
EKVX = test system: EKVX
RXF 393 = test system: RXF 393
SK-MEL-5 = test system: SK-MEL-5
U-251 = test system: U-251
MCF7 = test system: MCF7
MDA-MB-435 = test system: MDA-MB-435
PC-3 = test system: PC-3

| SMILES | GI50 (786-0) | GI50 (CAKI-1) | GI50 (HCC 2998) | GI50 (HCT-15) | GI50 (KM-20L2) | GI50 (NCI-H23) | GI50 (OVCAR-3) | GI50 (OVCAR-8) | GI50 (RPMI-8226) | GI50 (SW-620) | GI50 (TK-10) | GI50 (UACC-62) | GI50 (UO-31) | GI50 (EKVX) | GI50 (RXF 393) | GI50 (SK-MEL-5) | GI50 (U-251) | GI50 (MCF7) | GI50 (MDA-MB-435) | GI50 (PC-3) |
| --- | --- | --- | --- | --- | --- | --- | --- | --- | --- | --- | --- | --- | --- | --- | --- | --- | --- | --- | --- | --- |
| NC(=O)C(=O)C1C(=O)N(c2ccccc2)N=C1N (stereo unspecified) | > 100 µM (inactive) | > 100 µM (inactive) | > 100 µM (inactive) | > 100 µM | > 100 µM (inactive) | > 100 µM (inactive) | > 100 µM (inactive) | > 100 µM (inactive) | > 100 µM (inactive) | > 100 µM (inactive) | > 100 µM (inactive) | > 100 µM (inactive) | > 100 µM (inactive) |  |  |  |  |  |  |  |
| O=S(=O)(N/N=C/c1cccc(/C=N/NS(=O)(=O)c2ccccc2)c1)c1ccccc1 | > 100 µM (inactive) |  | > 100 µM (inactive) | 80.5 µM | > 100 µM (inactive) | 87.1 µM (inactive) | 54.8 µM (inactive) | 55.5 µM (inactive) | 70.8 µM (inactive) |  | 47.8 µM (inactive) | 85.9 µM (inactive) | 46.7 µM (inactive) | 77.6 µM (inactive) | 51.6 µM (inactive) | 39.2 µM (inactive) | 69.5 µM (inactive) |  |  |  |
| CC(C)OC(=O)c1cccnc1/C=N/O | > 100 µM (inactive) | > 100 µM (inactive) | > 100 µM (inactive) | > 100 µM | > 100 µM (inactive) | > 100 µM (inactive) | > 100 µM (inactive) | > 100 µM (inactive) | > 100 µM (inactive) | > 100 µM (inactive) | > 100 µM (inactive) | > 100 µM (inactive) | > 100 µM (inactive) | > 100 µM (inactive) |  | > 100 µM (inactive) | > 100 µM (inactive) |  |  |  |
| COC(=O)C1C2OC(C)(C)OC2CN1S(=O)(=O)c1ccc(C)cc1 (stereo unspecified) | > 100 µM (inactive) | > 100 µM (inactive) | > 100 µM (inactive) | > 100 µM |  | > 100 µM (inactive) | > 100 µM (inactive) | > 100 µM (inactive) | > 100 µM (inactive) | > 100 µM (inactive) | > 100 µM (inactive) | > 100 µM (inactive) | > 100 µM (inactive) | 8.04 µM (inactive) | > 100 µM (inactive) | > 100 µM (inactive) | > 100 µM (inactive) | > 100 µM (inactive) | > 100 µM (inactive) | > 100 µM (inactive) |
| CCC1CCCCN1CC(C(C)=O)C(c1ccccc1)c1c(O)c2ccccc2oc1=O (stereo unspecified) | > 100 µM (inactive) | > 100 µM (inactive) |  | > 100 µM | > 100 µM (inactive) | > 100 µM (inactive) | > 100 µM (inactive) | > 100 µM (inactive) | 69.5 µM (inactive) | > 100 µM (inactive) | > 100 µM (inactive) | 82.2 µM (inactive) | > 100 µM (inactive) | > 100 µM (inactive) | > 100 µM (inactive) | > 100 µM (inactive) | > 100 µM (inactive) |  |  |  |
| CCC/C=C/C=C/C1CC(O)C(O)C(=O)C1CO (stereo unspecified) | > 100 µM (inactive) | > 100 µM (inactive) | > 100 µM (inactive) | > 100 µM |  | > 100 µM (inactive) | 21.6 µM (inactive) | > 100 µM (inactive) | > 100 µM (inactive) | > 100 µM (inactive) | > 100 µM (inactive) | > 100 µM (inactive) | > 100 µM (inactive) | > 100 µM (inactive) | > 100 µM (inactive) | > 100 µM (inactive) | > 100 µM (inactive) | > 100 µM (inactive) | > 100 µM (inactive) | 51.1 µM (inactive) |
| Clc1ccc2c(c1)-c1c3c(nn1-c1ccccc1)-c1ccccc1SC3O2 (stereo unspecified) | > 100 µM (inactive) |  | > 100 µM (inactive) |  | > 100 µM (inactive) | > 100 µM (inactive) | > 100 µM (inactive) | > 100 µM (inactive) | > 100 µM (inactive) | > 100 µM (inactive) | > 100 µM (inactive) |  | > 100 µM (inactive) | > 100 µM (inactive) | > 100 µM (inactive) | > 100 µM (inactive) | > 100 µM (inactive) |  |  |  |
| NC1CCC2(O)c3ccccc3C2C1 (stereo unspecified) | > 100 µM (inactive) |  |  | > 100 µM | > 100 µM (inactive) | > 100 µM (inactive) |  | > 100 µM (inactive) | > 100 µM (inactive) | > 100 µM (inactive) | > 100 µM (inactive) | > 100 µM (inactive) | > 100 µM (inactive) | > 100 µM (inactive) | > 100 µM (inactive) | > 100 µM (inactive) | > 100 µM (inactive) |  |  |  |
| CCCn1cnc2c(SCc3ccc(Cl)cc3)nc(N)nc21 | 29.6 µM (inactive) | 24.8 µM (inactive) | 20 µM (inactive) | 27.3 µM |  | 31 µM (inactive) | 17.2 µM (inactive) | 40.1 µM (inactive) | 16.1 µM (inactive) | 36.3 µM (inactive) | 13.5 µM (inactive) | 21.6 µM (inactive) | 5.85 µM (inactive) | 15.5 µM (inactive) | 22.3 µM (inactive) | 15.3 µM (inactive) | 23.1 µM (inactive) | 31 µM (inactive) | 23.1 µM (inactive) | 21.2 µM (inactive) |
| c1cc2c(cc1NC1=NCCO1)CCCC2 | 5.07 µM (inactive) | 18.6 µM (inactive) | 2.55 µM (inactive) | 3.45 µM |  | 4.09 µM (inactive) | 3.51 µM (inactive) | 3.66 µM (inactive) | 2.92 µM (inactive) | 9.73 µM (inactive) | 10.6 µM (inactive) | 4.11 µM (inactive) | 6.97 µM (inactive) | 8.04 µM (inactive) | 2.67 µM (inactive) | 3.05 µM (inactive) | 4.16 µM (inactive) | 0.619 µM (active) | 1.57 µM (inactive) | 3.01 µM (inactive) |
| CCCCn1c(C)c2c(c1C)C(=O)N(CC(O)CN1CCc3ccccc3C1)C2=O (stereo unspecified) | 45.8 µM (inactive) | 80.2 µM (inactive) | 39.8 µM (inactive) | > 100 µM |  | 56.5 µM (inactive) | 67.8 µM (inactive) | > 100 µM (inactive) | 76.9 µM (inactive) | > 100 µM (inactive) | 67.3 µM (inactive) | 60 µM (inactive) | 59 µM (inactive) | 12.3 µM (inactive) | 67.6 µM (inactive) | 31.5 µM (inactive) | 81.5 µM (inactive) | 33.3 µM (inactive) | 60.1 µM (inactive) | 56.6 µM (inactive) |
| CC(C)C(C(=O)O)N(CC1(O)OCC(O)C(O)C1O)N=O (stereo unspecified) | > 100 µM (inactive) |  | > 100 µM (inactive) |  | > 100 µM (inactive) | > 100 µM (inactive) | > 100 µM (inactive) | > 100 µM (inactive) | > 100 µM (inactive) | > 100 µM (inactive) | > 100 µM (inactive) | > 100 µM (inactive) | > 100 µM (inactive) | > 100 µM (inactive) | > 100 µM (inactive) | > 100 µM (inactive) | > 100 µM (inactive) |  |  |  |
| Cc1ccc(/N=N/c2c(C)nn(-c3ccccc3)c2-c2ccccc2)c(Br)c1 | 32.6 µM (inactive) | > 100 µM (inactive) | 61.8 µM (inactive) | 28.2 µM | > 100 µM (inactive) |  | > 100 µM (inactive) | > 100 µM (inactive) |  | 63.5 µM (inactive) | > 100 µM (inactive) | 40 µM (inactive) | > 100 µM (inactive) | > 100 µM (inactive) |  |  |  |  |  |  |
| O=C1NC(N/N=C/c2ccccc2)=N/C1=C\c1ccco1 | 22.3 µM (inactive) | 37.3 µM (inactive) | 32.1 µM (inactive) | 40.6 µM |  | 26.4 µM (inactive) | 33.8 µM (inactive) | 16.1 µM (inactive) | 21.1 µM (inactive) | 46 µM (inactive) | 31.5 µM (inactive) | 28.7 µM (inactive) | 46.8 µM (inactive) | 36.7 µM (inactive) | 25.1 µM (inactive) | 45.9 µM (inactive) | 24.8 µM (inactive) | 40.2 µM (inactive) | 51.9 µM (inactive) | 33.9 µM (inactive) |
| N#C/C(=C1\SC(C(N)=O)=C(N)N1c1ccccc1)c1nc2ccccc2[nH]1 | > 100 µM (inactive) | > 100 µM (inactive) |  | > 100 µM | > 100 µM (inactive) | > 100 µM (inactive) | > 100 µM (inactive) | > 100 µM (inactive) |  | > 100 µM (inactive) | 87.9 µM (inactive) | > 100 µM (inactive) | 99.1 µM (inactive) | > 100 µM (inactive) |  | > 100 µM (inactive) | > 100 µM (inactive) |  |  |  |
| CC(=O)O[C@H]1C(=O)[C@@]2(C)[C@H]([C@H](OC(=O)c3ccccc3)[C@]3(O)C[C@H](OC(=O)[C@H](O)[C@@H](NC(=O)c4ccco4)c4ccccc4)C(C)=C1C3(C)C)[C@]1(OC(C)=O)CO[C@@H]1C[C@@H]2O | 0.00421 µM (active) | 0.278 µM (active) | < 0.00125 µM (active) | 0.249 µM |  | 0.00136 µM (active) | < 0.00125 µM (active) | < 0.00125 µM (active) | < 0.00125 µM (active) | < 0.00125 µM (active) | 0.022 µM (active) | < 0.00125 µM (active) | 0.627 µM (active) | 0.0112 µM (active) | 0.00407 µM (active) | < 0.00125 µM (active) | < 0.00125 µM (active) | < 0.00125 µM (active) | < 0.00125 µM (active) | < 0.00125 µM (active) |
| C/C=C(\C)C(O)C(C)C(O)C/C=C(C)/C=C(\C)C/C(C)=C/C/C=C(\C)C(O)C(C)c1ccc(CCC)c(=O)o1 (stereo unspecified) | 20.8 µM (inactive) | 12.9 µM (inactive) | 12.9 µM (inactive) | 1.17 µM |  | < 0.01 µM (active) | 12.1 µM (inactive) | 12.9 µM (inactive) | 16.1 µM (inactive) | 12.3 µM (inactive) | 17.5 µM (inactive) | 9.86 µM (inactive) | 7.82 µM (inactive) | 17.5 µM (inactive) | 26.7 µM (inactive) | 1.14 µM (inactive) | 11.4 µM (inactive) | 4.25 µM (inactive) | 9.12 µM (inactive) | 3.5 µM (inactive) |
